Data taken from patent US20260060250A1, “HERBICIDAL PYRIDONE DERIVATIVES” (SYNGENTA CROP PROTECTION AG, priority 2022, published 2026).

Key:
Format in all cases: in vivo
Zea mays (ZEAMX) [1] = assay: Pre-emergence Test (Table B1); parameters: key: 5=81-100%; 4=61-80%; 3=41-60%; 2=21-40%; 1=0-20%; 0=inactive; conditions: 1000 g/ha, evaluated after 13 days
Zea mays (ZEAMX) [2] = assay: Post-emergence Test (Table B2); parameters: key: 5=81-100%; 4=61-80%; 3=41-60%; 2=21-40%; 1=0-20%; 0=inactive; conditions: evaluated after 13 days
Description: (§1) Seeds of a variety of test species are sown in standard soil in pots (Amaranthus palmeri (AMAPA), Setaria faberi (SETFA), Echinochloa crus-galli (ECHCG), (Amaranthus retroflexus (AMARE), Zea mays (ZEAMX), Ipomoea hederacea (IPOHE)). After 8 days cultivation under controlled conditions in a glasshouse (at 24° C./16° C., day/night; 14 hours light; 65% humidity), the plants are sprayed with an aqueous spray solution derived from the formulation of the technical active ingredient in acetone/water (50:50) solution containing 0.5% Tween 20 (polyoxyethelyene sorbitan monolaurate, CAS RN 9005-64-5). Compounds are applied at 1000 g/ha unless otherwise stated. The test plants are then grown in a glasshouse under controlled conditions in a glasshouse (at 24° C./16° C., day/night; 14 hours light; 65% humidity) and watered twice daily. After 13 days the test is evaluated for the percentage damage caused to the plant.

[3] = system: Ipomoea hederacea (IPOHE); assay: Post-emergence Test (Table B2); parameters: key: 5=81-100%; 4=61-80%; 3=41-60%; 2=21-40%; 1=0-20%; 0=inactive; conditions: evaluated after 13 days
Description: as §1

[4] = system: Echinochloa crus-galli (ECHCG); assay: Post-emergence Test (Table B2); parameters: key: 5=81-100%; 4=61-80%; 3=41-60%; 2=21-40%; 1=0-20%; 0=inactive; conditions: evaluated after 13 days
Description: as §1

[5] = system: Ipomoea hederacea (IPOHE); assay: Pre-emergence Test (Table B1); parameters: key: 5=81-100%; 4=61-80%; 3=41-60%; 2=21-40%; 1=0-20%; 0=inactive; conditions: 1000 g/ha, evaluated after 13 days
[6] = system: Echinochloa crus-galli (ECHCG); assay: Pre-emergence Test (Table B1); parameters: key: 5=81-100%; 4=61-80%; 3=41-60%; 2=21-40%; 1=0-20%; 0=inactive; conditions: 1000 g/ha, evaluated after 13 days
Setaria faberi (SETFA) [7] = assay: Pre-emergence Test (Table B1); parameters: key: 5=81-100%; 4=61-80%; 3=41-60%; 2=21-40%; 1=0-20%; 0=inactive; conditions: 1000 g/ha, evaluated after 13 days
[8] = system: Amaranthus retroflexus (AMARE); assay: Pre-emergence Test (Table B1); conditions: 1000 g/ha, evaluated after 13 days
[9] = system: Amaranthus palmeri (AMAPA); assay: Post-emergence Test (Table B2); conditions: evaluated after 13 days
Description: as §1

Setaria faberi (SETFA) [10] = assay: Post-emergence Test (Table B2); conditions: evaluated after 13 days
Description: as §1

[11] = system: Amaranthus retroflexus (AMARE); assay: Post-emergence Test (Table B2); conditions: evaluated after 13 days
Description: as §1

[12] = system: Amaranthus palmeri (AMAPA); assay: Pre-emergence Test (Table B1); conditions: 1000 g/ha, evaluated after 13 days
[13] = lower rate of 250 g per hectare

SMILES | percentage damage caused to the plant, ZEAMX (Zea mays (ZEAMX) [1]) | percentage damage caused to the plant, ZEAMX (Zea mays (ZEAMX) [2]; 1000 g/ha) | percentage damage caused to the plant, IPOHE ([3]; 1000 g/ha) | percentage damage caused to the plant, ECHCG ([4]; 1000 g/ha) | percentage damage caused to the plant, IPOHE [5] | percentage damage caused to the plant, ECHCG [6] | percentage damage caused to the plant, SETFA (Setaria faberi (SETFA) [7]) | percentage damage caused to the plant, AMARE [8] | percentage damage caused to the plant, AMAPA ([9]; 1000 g/ha) | percentage damage caused to the plant, SETFA (Setaria faberi (SETFA) [10]; 1000 g/ha) | percentage damage caused to the plant, AMARE ([11]; 1000 g/ha) | percentage damage caused to the plant, AMAPA [12] | percentage damage caused to the plant, ZEAMX (Zea mays (ZEAMX) [2]; [13]) | percentage damage caused to the plant, IPOHE [3, 13] | percentage damage caused to the plant, ECHCG [4, 13] | percentage damage caused to the plant, AMAPA [9, 13] | percentage damage caused to the plant, SETFA (Setaria faberi (SETFA) [10]; [13]) | percentage damage caused to the plant, AMARE [11, 13]
CCn1c(C)c(-c2cc(C(=O)OC(C)C(F)(F)F)ccc2F)c(=O)c(C(=O)O)c1-c1ccc(Cl)c(Cl)c1 (centres unmarked) [Compound 7, 2-(3,4-dichlorophenyl)-1-ethyl-5-[2-fluoro-5-(2,2,2-trifluoro-1-methyl-ethoxy)carbonyl-phenyl]-6-methyl-4-oxo-pyridine-3-carboxylic acid] | 1 (1=0-20%) | 2 (2=21-40%) | 1 (1=0-20%) | 3 (3=41-60%) | 1 (1=0-20%) | 2 (2=21-40%) | 2 (2=21-40%) | 5 (5=81-100%) | 5 (5=81-100%) | 4 (4=61-80%) | 5 (5=81-100%) | 5 (5=81-100%) |  |  |  |  |  | 
CCn1c(C)c(-c2cc(C(=O)OC(C)C3CC3)ccc2F)c(=O)c(C(=O)O)c1-c1ccc(Cl)c(Cl)c1 (centres unmarked) [Compound 8, 5-[5-(1-cyclopropylethoxycarbonyl)-2-fluoro-phenyl]-2-(3,4-dichlorophenyl)-1-ethyl-6-methyl-4-oxo-pyridine-3-carboxylic acid] | 0 | 3 (3=41-60%) | 1 (1=0-20%) | 1 (1=0-20%) | 0 | 0 | 0 | 5 (5=81-100%) | 5 (5=81-100%) | 2 (2=21-40%) | 4 (4=61-80%) | 4 (4=61-80%) |  |  |  |  |  | 
CCn1c(C)c(-c2cc(C(=O)OC(C)C3CCCC3)ccc2F)c(=O)c(C(=O)O)c1-c1ccc(Cl)c(Cl)c1 (centres unmarked) [Compound 16, 5-[5-(1-cyclopentylethoxycarbonyl)-2-fluoro-phenyl]-2-(3,4-dichlorophenyl)-1-ethyl-6-methyl-4-oxo-pyridine-3-carboxylic acid] |  | 1 (1=0-20%) | 0 | 0 |  |  |  |  | 4 (4=61-80%) | 1 (1=0-20%) | 5 (5=81-100%) |  |  |  |  |  |  | 
C#CCC(C)OC(=O)c1ccc(F)c(-c2c(C)n(CC)c(-c3ccc(Cl)c(Cl)c3)c(C(=O)O)c2=O)c1 (centres unmarked) [Compound 17, 2-(3,4-dichlorophenyl)-1-ethyl-5-[2-fluoro-5-(1-methylbut-3-ynoxycarbonyl)phenyl]-6-methyl-4-oxo-pyridine-3-carboxylic acid] | 1 (1=0-20%) | 1 (1=0-20%) |  | 2 (2=21-40%) | 2 (2=21-40%) | 1 (1=0-20%) | 2 (2=21-40%) | 5 (5=81-100%) | 5 (5=81-100%) | 2 (2=21-40%) | 5 (5=81-100%) | 5 (5=81-100%) |  |  |  |  |  | 
CCn1c(C)c(-c2cc(C(=O)OC(C)C#N)ccc2F)c(=O)c(C(=O)O)c1-c1ccc(Cl)c(Cl)c1 (centres unmarked) [Compound 41, 5-[5-(1-cyanoethoxycarbonyl)-2-fluoro-phenyl]-2-(3,4-dichlorophenyl)-1-ethyl-6-methyl-4-oxo-pyridine-3-carboxylic acid] |  |  |  |  |  |  |  |  |  |  |  |  | 0 | 1 (1=0-20%) | 0 | 2 (2=21-40%) | 2 (2=21-40%) | 2 (2=21-40%)
